Assay results reported in patent EP0808626A1, “Use of acetyl-L-carnitine for the treatment of presenile Alzheimer's disease” (Sigma-Tau Industrie Farmaceutiche Riunite S.p.A., priority 1996, dated 1997).

How the values were obtained:
[1] = tested on: early-onset AD patients; assay: Double-blind, randomized, placebo-controlled trials with cognitive and functional clinical rating scales; type: in vivo; settings: "efficacy" population
Method: For the purposes of assessing the clinical efficacy of acetyl L-carnitine in early-onset AD patients. 8 different parallel-group, double-blind, randomized, placebo-controlled trials in which acetyl L-carnitine was administered chronically by mouth to subjects suffering from early-onset (before age 65) or late-onset (after age 65) Alzheimer's disease were pooled and assessed as a whole.
Acetyl L-carnitine or placebo were administered at doses ranging from 2 to 3 g/day in the different studies. All patients recruited into these trials had diagnoses of probable Alzheimer's disease according to the criteria laid down by the DSM-III-R and the NINCDS-ADRDA; for recruitment patients had to have a Hachinski Ischemic Score of 4 points or less and no CT or NMR findings indicative of cerebral lesions other than those typical of Alzheimer's disease.
A total of 834 patients were recruited into the 8 trials considered. Of these, 140 (16.8%) were suffering from early-onset AD (before 65 years of age according to the DSM-IV definition). The criterion adopted to identity these patients as early-onset was their actual age at the time of recruitment into the study.
In the 8 trials considered, the progression of Alzheimer's disease was assessed on the basis of cognitive clinical rating scales (cognitive section of the Alzheimer's Disease Assessment Scale [ADAS-Cog]; MMSE - Mini Mental State Examination; BIMC - Blessed Information Memory Concentration) and functional or global clinical scales (CDR - Clinical Dementia Rating Scale; BDS - Blessed Dementia Scale; CGI-S and -C - Clinical Global Impression of Severity and Change) according to the scientific criteria indicated and approved by the various international regulatory authorities.

[2] = stated to justify doses larger than 1 to 4 g/day; cited from earlier work
[3] = study ST-901, Functional, oral 3 g/day, 12 months
[4] = study ST-88102, Cognitive, oral 2-3 g/day, 44 weeks
[5] = study ST-88102, Functional, oral 2-3 g/day, 44 weeks
[6] = the 5 studies of 6 months, Functional, oral

## CC(=O)O[C@H](CC(=O)[O-])C[N+](C)(C)C [Acetyl L-carnitine, acetyl L-carnitine]
[1]; study DRN2-006, Cognitive, oral 2 g/day, 12 months
  BIMC, mean change in final value at 6-12 months compared to baseline: -3.5
[1]; study DRN2-006, Functional, oral 2 g/day, 12 months
  BDS, mean change in final value at 6-12 months compared to baseline: 0.4
[1]; [3]
  CDR, mean change in final value at 6-12 months compared to baseline: 1.9
  CGI-C, mean change in final value at 6-12 months compared to baseline: 4.5
  CGI-S, mean change in final value at 6-12 months compared to baseline: 0.3
[1]; [4]
  ADAS-Cog, mean change in final value at 6-12 months compared to baseline: 4.7
  MMSE, mean change in final value at 6-12 months compared to baseline: -2.1
[1]; [5]
  BDS, mean change in final value at 6-12 months compared to baseline: 1.2
  CGI-C, mean change in final value at 6-12 months compared to baseline: 4.4
  CGI-S, mean change in final value at 6-12 months compared to baseline: 0.0
[1]; the 5 studies of 6 months, Cognitive, oral
  MMSE, mean change in final value at 6-12 months compared to baseline: -0.7
[1]; [6]
  CGI-C, mean change in final value at 6-12 months compared to baseline: 4.3
  CGI-S, mean change in final value at 6-12 months compared to baseline: 0.2
[2]
  toxicity: substantial non-toxicity
